Laboratory results: the OPERA property sets (Mansouri et al. 2018)
≈ marks a conversion by molar mass, not a printed value.

Row | Compound | logP | further results
1 | C#CCOC(=O)[C@@H](C)Oc1ccc(Oc2ncc(Cl)cc2F)cc1 | 3.9 | 
2 | O=c1c2cc(F)ccc2nc(-n2cncn2)n1-c1ccc(Cl)cc1Cl |  | logD (pH 5.6): 3.24
3 | COc1cc(OC)nc(N=C(O)NS(=O)(=O)Nc2ccccc2C(=O)C2CC2)n1 | 2.05 | 
4 | CCOc1ccccc1OS(=O)(=O)NC(O)=Nc1nc(OC)cc(OC)n1 | 2.89 | solubility (pH 5.0, 20 °C): 0.0653 mM (≈ 26 µg/mL)
5 | CCOC(=O)C1(C)OC(=O)N(c2cc(Cl)cc(Cl)c2)C1=O (centres undefined) | 3.15 | 
6 | CC1(C)OC(c2ccco2)CN1C(=O)C(Cl)Cl (centres undefined) | 2.12 | solubility (20 °C): 0.708 mM (≈ 197 µg/mL)
7 | CCS(=O)(=O)c1nc2ccccn2c1S(=O)(=O)NC(=O)Nc1nc(OC)cc(OC)n1 |  | solubility (pH 5.0, 20 °C): 0.0381 mM (≈ 17.9 µg/mL)
8 | COc1nn(CSP(=S)(OC)OC)c(=O)s1 | 2.2 | 
9 | COC(=O)[C@@H](C)N(C(=O)c1ccccc1)c1ccc(F)c(Cl)c1 | 3 | 
10 | CCCCOCN(C(=O)CCl)c1c(CC)cccc1CC |  | solubility (20 °C): 0.0688 mM (≈ 21.4 µg/mL)
11 | CC(C)OC(=O)C(C(=O)OC(C)C)=C1SCCS1 |  | solubility (25 °C): 0.175 mM (≈ 50.9 µg/mL)
12 | CC(C)(C)C(O)/C(=C\c1ccc(Cl)cc1)n1cncn1 (centres undefined) | 3.67 | 
13 | COc1cc(OC)nc(NC(=O)NS(=O)(=O)c2c(-c3nnn(C)n3)cnn2C)n1 | 0.65 | solubility (pH 7.0, 20 °C): 2.47 mM (≈ 1050 µg/mL)
14 | CCSCCSP(=S)(OC)OC | 3.15 | 
15 | CCOC(=O)C1CC(=O)C(=C(O)C2CC2)C(=O)C1 (centres undefined) | 1.6 | 
16 | COCCN(C(=O)CCl)c1c(C)cccc1C | 2.17 | solubility (20 °C): 8.59 mM (≈ 2200 µg/mL)
17 | N#Cc1c(Cl)cccc1Cl |  | solubility (20 °C): 0.105 mM (≈ 18 µg/mL)
18 | CCOc1ccc(C(C)(C)COCc2cccc(Oc3ccccc3)c2)cc1 |  | solubility (25 °C): < 2.66e-06 mM
19 | C[C@H](Oc1ccc(Oc2nc3ccc(Cl)cc3o2)cc1)C(=O)O |  | solubility (pH 5.1, 20 °C): 0.809 mM (≈ 270 µg/mL)
20 | CC1=NNC(=O)N(/N=C/c2cccnc2)C1 | -0.18 | solubility (25 °C): 1.34 mM (≈ 290 µg/mL)
21 | CCOC(=O)c1cnn(C)c1S(=O)(=O)NC(=O)Nc1nc(OC)cc(OC)n1 | 1.3 | 
22 | CCCC(=NOCC)C1=C(O)CC(C2CCCSC2)CC1=O (centres undefined) |  | solubility (20 °C): 0.123 mM (≈ 40 µg/mL)
23 | Cc1ccn2nc(S(=O)(=O)Nc3c(F)cccc3F)nc2n1 |  | solubility (pH 2.5): 0.15 mM (≈ 48.7 µg/mL)
24 | O=C(Nc1ccc(Cl)cc1C(O)c1ccccc1)c1ccncc1 (centres undefined) | 3.13 | 

Row | Compound | logP | further results
25 | CCN(Cc1ccc(Cl)nc1)C(=C[N+](=O)[O-])NC |  | solubility (pH 7.0, 20 °C): 3100 mM (≈ 840000 µg/mL)
26 | Fc1cccc(F)c1-c1nnc(-c2ccccc2Cl)nn1 | 3.3 | 
27 | COc1cc(OC)nc(N=C(O)NS(=O)(=O)N(C)S(C)(=O)=O)n1 | 1.63 | 
28 | CCOP(=S)(OCC)OC(Cl)C(Cl)(Cl)Cl (centres undefined) |  | solubility (20 °C): < 0.00298 mM
29 | O=C(O)Cn1c(=O)sc2cccc(Cl)c21 | 1.34 | 
30 | CNC(=O)ON=C(SC)C(=O)N(C)C |  | solubility (25 °C): 1280 mM (≈ 280000 µg/mL)
31 | COC(=O)/C=C(\C)OP(=O)(OC)OC | 0.13 | 
32 | CON=C(C)c1cccc(Oc2nc(OC)cc(OC)n2)c1C(=O)OC | 2.84 | solubility (20 °C): 0.249 mM (≈ 90 µg/mL)
33 | CCS(=O)CCSP(=O)(OC)OC (centres undefined) | -0.74 | 
34 | CCOC(=O)CSc1nc(C(C)(C)C)nn1C(=O)N(C)C | 2.69 | solubility (pH 7.0, 25 °C): 1.38 mM (≈ 433 µg/mL)
35 | CCOP(=S)(Oc1cnc(C(C)(C)C)nc1)OC(C)C (centres undefined) |  | solubility (pH 7.0, 20 °C): 0.0173 mM (≈ 5.5 µg/mL)
36 | CCCN(CCC)c1c([N+](=O)[O-])cc(C(F)(F)F)c(N)c1[N+](=O)[O-] | 4.1 | 
37 | CCCCCCCCSC(=O)Oc1cc(Cl)nnc1-c1ccccc1 |  | solubility (20 °C): 0.00396 mM (≈ 1.5 µg/mL)
38 | CC1(C)[C@H](C=C(Cl)Cl)[C@H]1C(=O)OCc1c(F)c(F)cc(F)c1F |  | solubility (20 °C): 0.000154 mM (≈ 0.057 µg/mL)
39 | COCC(=O)N(c1c(C)cccc1C)N1CCOC1=O | 0.8 | solubility (20 °C): 12.2 mM (≈ 3400 µg/mL)
40 | FC(F)(F)C(=NOCC1OCCO1)c1ccc(Cl)cc1 | 2.9 | solubility (20 °C): 0.0969 mM (≈ 30 µg/mL)
41 | C=C/C=C\CC1=C(C)[C@@H](OC(=O)[C@@H]2[C@@H](C=C(C)C)C2(C)C)CC1=O | 5.9 | 
42 | CCCN(CCC)c1c([N+](=O)[O-])cc(C(F)(F)F)cc1[N+](=O)[O-] |  | solubility (pH 5.0, 25 °C): 0.000701 mM (≈ 0.235 µg/mL)
43 | COCc1cnc(C2=NC(C)(C(C)C)C(=O)N2)c(C(=O)O)c1 (centres undefined) | 0.73 | 
44 | CCOc1nc(C(Cl)(Cl)Cl)ns1 | 3.37 | solubility (25 °C): 0.473 mM (≈ 117 µg/mL)
45 | CC(C)(C)N(NC(=O)c1ccc(Cl)cc1)C(=O)c1ccccc1 | 3.22 | solubility: 0.0363 mM (≈ 12 µg/mL)
46 | CCS(=O)(=O)c1cccnc1S(=O)(=O)NC(=O)Nc1nc(OC)cc(OC)n1 |  | logD (pH 5.0): 0.29
47 | COP(=O)(OC)OC1=C(Cl)C2C=CCC12 (centres undefined) | 2.32 | 
48 | Cc1c(COC(=O)[C@@H]2[C@H](/C=C(\Cl)C(F)(F)F)C2(C)C)cccc1-c1ccccc1 (racemic) |  | solubility: 0.000236 mM (≈ 0.1 µg/mL)
